In article PMC11060137, “A Phase I Study of KIN-3248, an Irreversible Small-molecule Pan-FGFR Inhibitor, in Patients with Advanced FGFR2/3-driven Solid Tumors” (Cancer Research Communications, 2024):
Like-named read-outs stand apart in the source and are kept apart here.

Tests used:
[1] = test system: advanced solid tumors harboring FGFR2 and/or FGFR3 gene alterations; experiment: Antitumor activity by RECIST v1.1; assay type: in vivo, human
[2] = Plasma pharmacokinetics in patients (LC/MS-MS, noncompartmental); assay type: in vivo, human
Description: Blood for pharmacokinetic analysis was collected C1D1 (pretreatment and postdose at 0.25, 0.5, 1, 2, 4, 6, 8, 10 hours), […] (pretreatment, postdose at 1 and 2 hours), C1D8 and day 15 (pretreatment, postdose 1 hour), C2D1 (pretreatment, postdose at 0.25, 0.5, 1, 2, 4, 6, 8, 10 hours), and pretreatment and 1 hour postdose on day 1 of C3, C4 and cycle 5. KIN-3248 concentration was determined at each timepoint by an established and validated LC/MS-MS assay.

[3] = test system: FGFR2/3-driven cholangiocarcinoma, gastric, and bladder cancer xenograft models; parameters: method as in PMID 38267212; settings: cited from earlier work
ctDNA = ctDNA molecular response (change in mean VAF, PredicineATLAS); assay type: in vivo, human; settings: after 1 cycle; 26 patients evaluable for RECIST and ctDNA response
Source text: Whole blood was collected into Streck Cell Free BCT DNA tubes on cycle 1 day 1 and cycle 2 day 1. Samples were processed to extract plasma followed by cell-free DNA isolation, which was then interrogated by PredicineATLAS, a 600 gene assay able to detect SNVs, indels, rearrangements, fusions, and copy-number gains, as described previously ([19]).
For each patient with available paired ctDNA, the change in ctDNA after one cycle of treatment was summarized by calculating the mean variant allele frequency (VAF) of all somatic mutations at each timepoint and then taking the ratio as follows: [(mean VAF^C2D1/mean VAF^C1D1) −1]*100 ([20]). For somatic mutations detected in only one sample of a patient-matched pair, the VAF was imputed to be zero for calculation purposes, when the mutation was not detected. Change in match pair ctDNA was correlated both categorically with RECIST v 1.1 response and continuously (Pearson R) with the best % change in target lesions. Biomarker analyses were conducted using R [R Core Team 2023 ([21])].

[4] = test system: molecular break (N549H) resistance mutation; parameters: method as in PMID 38267212; settings: cited from earlier work
[5] = test system: patients with advanced solid tumors harboring FGFR2 and/or FGFR3 gene alterations
Description: The study was divided into two parts. […] The secondary objectives included antitumor activity in Part A, determination of pharmacokinetics and pharmacodynamics.
Dose level 1 was started at 5 mg oral daily, and patients were escalated on study to 50 mg daily. On the basis of ongoing efficacy, toxicity, and pharmacokinetic analysis, a planned amendment added additional cohorts up to 80 mg orally daily to define the MTD/RP2D. […] One cycle was 28 days of continuous dosing. Intrapatient dose escalation after safely tolerating two cycles was allowed if per protocol criteria were met. Patients continued therapy until evidence of disease progression, intolerance or unacceptable toxicity, withdrawal of consent, investigator decision, sponsor decision, or death.
Patients were evaluated with medical history, physical examinations, and clinical laboratory on days 1, 8, 15, and 22 of cycle 1; days 1 and 15 from cycle 2 through cycle 5; and day 1 of each subsequent cycle. […] Except for hyperphosphatemia, adverse events (AE) were graded according to the NCI-CTCAE (Common Terminology Criteria for Adverse Events) Version 5.0 at each study visit and for approximately 30 days following end of treatment.
The primary endpoints for the overall study, included: the incidence of DLTs, incidence of AEs, treatment-emergent AEs (TEAE), and treatment-related AEs (TRAE).

C=CC(=O)N1C[C@@H](n2nc(C#Cc3c(F)cc4c(ncn4C4CC4)c3F)c(C(N)=O)c2NC)C[C@@H]1COC [KIN-3248]
Best response in pretreated ICC patients with FGFR2 kinase domain resistance mutations ([1]; 3 patients): progressive disease | Response in FGFR2/3 fusion patients ([1]; 5 patients): 20% | ORR ([1]; 54 patients): 9.25% | Responders among FGFR inhibitor pretreated patients with acquired FGFR resistance mutations in ctDNA ([1]; of 4 patients, gastric cancer): 1 | Confirmed responders among FGFR inhibitor experienced patients ([1]; of 23 patients): 1 | Confirmed responders among FGFR inhibitor naïve patients ([1]; of 31 patients): 3 | Responders among FGFR inhibitor naïve patients ([1]; of 31 patients): 4 | Patients achieving CR ([1]; of 54 patients enrolled): none | Patients achieving PR ([1]; of 54 patients enrolled): 5 | DCR ([1]; total population): 46% | Patients achieving SD ([1]; twenty patients): 37.0% | Exposure versus dose ([2]; 5-50 mg): generally dose proportional | Concentrations in Asian (China, Taiwan, Korean) versus non-Asian patients ([2]; exploratory analysis): not a qualitative difference | Accumulation ([2]; first two cycles): not observed | Apparent clearance (CL/F) ([2]; human, in vivo): 23,300-32,100 mL/hour | Steady-state geometric mean half-life (t1/2) ([2]; human, in vivo): approximately 4 hours | Volume of distribution (V/F) ([2]; human, in vivo): 135,000-200,000 mL | Tumor inhibition [3]: dose-dependent tumor inhibition | Patients with greater than 50% decrease in mean VAF (ctDNA): Six | IC50 [4]: low nanomolar | Patients with treatment reduced and discontinued because of TEAEs ([5]; 7 patients): 13.0% | Patients with treatment-related grade 3 events ([5]; 11 of 54 patients): 20.4% | Patients with treatment interrupted because of TEAEs ([5]; 16 patients): 29.6% | Patients with TEAE grade ≥3 events ([5]; 25 of 54 patients): 46.3% | Patients with TRAEs of any grade ([5]; 47 of 54 patients): 87.0% | Patients with TEAEs of any grade ([5]; 53 of 54 patients): 98.1% | TRAE of any grade: diarrhea ([5]; 54 patients): 25.9% | TRAE of any grade: hyperphosphatemia ([5]; 54 patients): 64.8% | TRAE of any grade: stomatitis ([5]; 54 patients): 16.7% | Number of dose-limiting toxicities (DLT) ([5]; 54 patients, 5-50 mg orally daily, DLT at dose level 1 (5 mg): grade 3 drug hypersensitivity reaction): one | Patient with any TEAE, n (%) ([5]; CTCAE (V5) Grade 1–2, N = 54): 28 (51.9%) | TEAE Alanine aminotransferase increased, n (%) ([5]; CTCAE (V5) Grade 1–2, N = 54): 5 (9.3%) | TEAE Aspartate aminotransferase increased, n (%) ([5]; CTCAE (V5) Grade 1–2, N = 54): 4 (7.4%) | TEAE Blood and lymphatic system disorders, n (%) ([5]; CTCAE (V5) Grade 1–2, N = 54): 9 (16.7%) | TEAE Blood creatinine increased, n (%) ([5]; CTCAE (V5) Grade 1–2, N = 54): 7 (13.0%) | TEAE Constipation, n (%) ([5]; CTCAE (V5) Grade 1–2, N = 54): 12 (22.2%) | TEAE Decreased appetite, n (%) ([5]; CTCAE (V5) Grade 1–2, N = 54): 6 (11.1%) | TEAE Diarrhea, n (%) ([5]; CTCAE (V5) Grade 1–2, N = 54): 17 (31.5%) | TEAE Dry mouth, n (%) ([5]; CTCAE (V5) Grade 1–2, N = 54): 8 (14.8%) | TEAE Eye disorders, n (%) ([5]; CTCAE (V5) Grade 1–2, N = 54): 12 (22.2%) | TEAE Fatigue, n (%) ([5]; CTCAE (V5) Grade 1–2, N = 54): 11 (20.4%) | TEAE Gastrointestinal disorders, n (%) ([5]; CTCAE (V5) Grade 1–2, N = 54): 35 (64.8%) | TEAE General disorders and administration site conditions, n (%) ([5]; CTCAE (V5) Grade 1–2, N = 54): 18 (33.3%) | TEAE Hypercalcemia, n (%) ([5]; CTCAE (V5) Grade 1–2, N = 54): 5 (9.3%) | TEAE Hyperphosphatemia, n (%) ([5]; CTCAE (V5) Grade 1–2, N = 54): 29 (53.7%) | TEAE Infections and infestations, n (%) ([5]; CTCAE (V5) Grade 1–2, N = 54): 4 (7.4%) | TEAE Investigations, n (%) ([5]; CTCAE (V5) Grade 1–2, N = 54): 19 (35.2%) | TEAE Metabolism and nutrition disorders, n (%) ([5]; CTCAE (V5) Grade 1–2, N = 54): 30 (55.6%) | TEAE Musculoskeletal and connective tissue disorders, n (%) ([5]; CTCAE (V5) Grade 1–2, N = 54): 14 (25.9%) | TEAE Nausea, n (%) ([5]; CTCAE (V5) Grade 1–2, N = 54): 6 (11.1%) | TEAE Nervous system disorders, n (%) ([5]; CTCAE (V5) Grade 1–2, N = 54): 7 (13.0%) | TEAE Psychiatric disorders, n (%) ([5]; CTCAE (V5) Grade 1–2, N = 54): 7 (13.0%) | TEAE Respiratory, thoracic, and mediastinal disorders, n (%) ([5]; CTCAE (V5) Grade 1–2, N = 54): 7 (13.0%) | TEAE Skin and subcutaneous tissue disorders, n (%) ([5]; CTCAE (V5) Grade 1–2, N = 54): 14 (25.9%) | TEAE Stomatitis, n (%) ([5]; CTCAE (V5) Grade 1–2, N = 54): 11 (20.4%) | TEAE Vascular disorders, n (%) ([5]; CTCAE (V5) Grade 1–2, N = 54): 5 (9.3%) | Patient with any TEAE, n (%) ([5]; CTCAE (V5) Grade 3, N = 54): 18 (33.3%) | TEAE Alanine aminotransferase increased, n (%) ([5]; CTCAE (V5) Grade 3, N = 54): 1 (1.9%) | TEAE Anemia, n (%) ([5]; CTCAE (V5) Grade 3, N = 54): 2 (3.7%) | TEAE Aspartate aminotransferase increased, n (%) ([5]; CTCAE (V5) Grade 3, N = 54): 2 (3.7%)
